Assay results as given in patent US11639353B2, “Cyclobutanes- and azetidine-containing mono and spirocyclic compounds as αV integrin inhibitors” (BRISTOL-MYERS SQUIBB COMPANY, priority 2016, dated 2023).
Structures can show the parent of a compound that is named as a salt.

Target: T1, human αVβ6 (Homo sapiens, UniProt P06756+P18564)
T1 construct: purchased R & D systems 3817-AV
Test: human αVβ6 HTRF binding assay
Conditions: alternatively SPA-based assay
Experimental: All binding assays used the HTRF (homogeneous time resolved fluorescence) technology from Cisbio International, therefore all assays are described as HTRF binding assays. The assay results for the Examples are listed above together with the characterization data. The HTRF binding assays are established for the following integrins: human αVβ6, human αVβ1, human αVβ3, human αVβ5, and human αVβ8. All assays used the following assay buffer: 20 mM Tris, pH 7.4, 1 mM MgCl2, 1 mM MnCl2, 0.01% Tween 20, and 0.01% BSA. Alternatively, a SPA-based assay was used for evaluation of receptor binding.
The following describes the components and a representative procedure for the human αVβ6 HTRF binding assay: Recombinant human αVβ6 Integrin (R & D systems, 3817-AV) was biotinylated. Biotinylated human αVβ6 Integrin was added to assay vessel at a final concentration of 1.25 nM. FITC-conjugated fibronectin (Cytoskeleton, FNR02) was then added at the final concentration of 5 nM. The mixture was centrifuged at 600 rpm for three minutes using Thermo Fisher Heraeus Multifuge X3 centrifuge and then incubated at RT for an hour. Streptavidin Terbium (Cisbio international 610STLB) was then added at the final concentration of 0.625 nM. The resulting mixture was centrifuged at 600 rpm for three minutes using Thermo Fisher Heraeus Multifuge X3 centrifuge and then incubated at room temperature overnight in dark before reading HTRF signals.
The SPA-based assay was carried out according to the protocol and procedures similar to the ones described in the following reference with appropriate modifications to agents and ligands which are readily understood by one skilled in the art: Pachter J A, Zhang R, Mayer-Ezell R., “Scintillation proximity assay to measure binding of soluble fibronectin to antibody-captured αVβ1 integrin” Anal Biochem. 1995 Sep. 1; 230(1):101-7.

T1 sequence (P06756 31-992 limits assumed): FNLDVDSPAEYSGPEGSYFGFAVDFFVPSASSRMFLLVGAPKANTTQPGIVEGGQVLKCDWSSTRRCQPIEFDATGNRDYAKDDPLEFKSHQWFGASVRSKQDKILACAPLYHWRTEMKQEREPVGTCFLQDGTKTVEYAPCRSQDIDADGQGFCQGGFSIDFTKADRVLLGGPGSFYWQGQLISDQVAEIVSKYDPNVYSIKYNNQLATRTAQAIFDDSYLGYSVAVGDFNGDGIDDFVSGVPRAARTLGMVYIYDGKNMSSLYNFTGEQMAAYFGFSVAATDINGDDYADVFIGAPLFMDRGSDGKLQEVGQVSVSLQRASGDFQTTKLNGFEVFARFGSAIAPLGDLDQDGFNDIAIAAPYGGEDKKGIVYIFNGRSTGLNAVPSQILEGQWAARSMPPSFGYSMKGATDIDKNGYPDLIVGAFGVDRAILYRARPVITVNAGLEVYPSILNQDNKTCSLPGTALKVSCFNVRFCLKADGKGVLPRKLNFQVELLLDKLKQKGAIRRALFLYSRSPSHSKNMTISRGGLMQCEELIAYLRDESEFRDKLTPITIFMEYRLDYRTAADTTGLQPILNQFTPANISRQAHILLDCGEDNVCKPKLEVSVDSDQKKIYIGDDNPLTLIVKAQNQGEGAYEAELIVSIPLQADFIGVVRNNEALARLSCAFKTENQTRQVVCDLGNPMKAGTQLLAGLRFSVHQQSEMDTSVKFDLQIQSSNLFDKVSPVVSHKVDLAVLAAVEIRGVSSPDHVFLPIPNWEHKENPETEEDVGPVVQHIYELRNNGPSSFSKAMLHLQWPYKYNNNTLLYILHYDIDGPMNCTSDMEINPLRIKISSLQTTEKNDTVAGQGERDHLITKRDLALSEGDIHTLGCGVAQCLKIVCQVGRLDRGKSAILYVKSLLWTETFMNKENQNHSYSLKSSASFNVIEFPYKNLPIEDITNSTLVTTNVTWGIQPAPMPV
T1 sequence (P18564 22-707 limits assumed): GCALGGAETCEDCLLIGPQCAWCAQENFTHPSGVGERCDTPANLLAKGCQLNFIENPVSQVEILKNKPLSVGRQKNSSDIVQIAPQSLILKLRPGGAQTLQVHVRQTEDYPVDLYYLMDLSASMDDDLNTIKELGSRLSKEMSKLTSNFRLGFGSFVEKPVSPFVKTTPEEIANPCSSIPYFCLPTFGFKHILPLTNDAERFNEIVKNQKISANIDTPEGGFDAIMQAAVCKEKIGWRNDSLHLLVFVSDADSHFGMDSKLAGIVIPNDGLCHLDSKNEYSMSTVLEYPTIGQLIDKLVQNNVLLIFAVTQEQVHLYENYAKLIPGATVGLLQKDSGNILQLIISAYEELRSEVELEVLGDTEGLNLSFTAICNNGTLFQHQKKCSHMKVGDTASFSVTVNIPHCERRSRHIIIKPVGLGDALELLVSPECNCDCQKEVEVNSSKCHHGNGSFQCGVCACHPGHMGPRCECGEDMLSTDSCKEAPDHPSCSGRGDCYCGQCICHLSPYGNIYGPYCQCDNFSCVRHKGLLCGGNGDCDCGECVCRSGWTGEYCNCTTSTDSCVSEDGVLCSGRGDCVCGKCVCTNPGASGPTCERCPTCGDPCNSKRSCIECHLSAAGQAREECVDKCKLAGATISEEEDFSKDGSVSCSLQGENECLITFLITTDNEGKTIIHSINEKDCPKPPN

Compound	IC50 [nM]
O=C(O)CC(c1cccc(N2CCOCC2)c1)C1CC2(CC(CCc3ccc4c(n3)NCCC4)C2)C1 (stereo not drawn) [Example 145]	2.7
O=C(O)C[C@@H](c1cnc2ccccc2c1)N1CC(CCCCc2ccc3c(n2)NCCC3)C1=O (stereo partly drawn) [Example 107]	2.7
O=C(O)C[C@H](NC(=O)[C@H]1C[C@H](CCc2ccc3c(n2)NCCC3)C1)c1cc(Cl)cc(Cl)c1 [Example 92]	1.2
COc1ccc([C@H](CC(=O)O)NC(=O)[C@H]2C[C@@H](Cc3ccc4c(n3)NCCC4)C2)cc1F [Example 201, (S)-3-(3-fluoro-4-methoxyphenyl)-3-((1s,3R)-3-((5,6,7,8-tetrahydro-1,8-naphthyridin-2-yl)methyl)cyclobutane-1-carboxamido)propanoic acid]	3.2
COc1ccc([C@H](CC(=O)O)N2CC(CCCc3ccc4c(n3)NCCC4)C2=O)cc1F (single isomer, unassigned) [Example 180]	17
O=C(N[C@@H](CNC(=O)C1CC2(C1)CN(CCc1ccc3c(n1)NCCC3)C2)C(=O)O)OCc1ccccc1 [Example 41]	9.3
O=C(O)C[C@@H](c1cc(F)cc(F)c1)N1CC(F)(CCCCc2ccc3c(n2)NCCC3)C1 [Example 162, (S)-3-(3,5-difluorophenyl)-3-(3-fluoro-3-(4-(5,6,7,8-tetrahydro-1,8-naphthyridin-2-yl)butyl)azetidin-1-yl)propanoic acid]	2
O=C(O)C[C@@H](c1ccc(F)c(F)c1)N1CC(F)(CCCCc2ccc3c(n2)NCCC3)C1 [Example 164]	2.6
CC(=O)N(CCCc1ccc2c(n1)NCCC2)C1CC(C(CC(=O)O)c2cccc(N3CCOCC3)c2)C1 (stereo not drawn) [Example 149, 3-(3-Morpholinophenyl)-3-(3-(N-(3-(5,6,7,8-tetrahydro-1,8-naphthyridin-2-yl)propyl)acetamido)cyclobutyl)propanoic acid]	4.6
O=C(O)C[C@H](NC(=O)N1CC(CCc2ccc3c(n2)NCCC3)C1)c1cncnc1 [Example 121]	6.2
CC(=O)N(CCCc1ccc2c(n1)NCCC2)C1CC(C(CC(=O)O)c2ccc3nccnc3c2)C1 (stereo not drawn) [Example 150]	6.7
O=C(N[C@@H](CNC(=O)[C@H]1C[C@@H](Cc2ccc3c(n2)NCCC3)C1)C(=O)O)OCC1CCC1 [Example 199]	2.2
O=C(O)CC(c1cnc2ccccc2c1)C1CC2(C1)CN(CCc1ccc3c(n1)NCCC3)C2 (stereo not drawn) [Example 101]	4.7
COc1ccc([C@H](CC(=O)O)C2(F)CN(C(=O)CCCc3ccc4c(n3)NCCC4)C2)cn1 (single isomer, unassigned) [Example 17]	29
COc1ccc(C(CC(=O)O)C2(F)CN(CCCCc3ccc4c(n3)NCCC4)C2)cn1 (stereo not drawn) [Example 122]	28
COc1ccc([C@H](CC(=O)O)NC(=O)C2CC(CCC3CCc4cccnc4N3)C2)cn1 (stereo partly drawn) [Example 57]	0.94
Cc1cc(C)n(-c2cccc(C(CC(=O)O)N3CC4(CC(Cc5ccc6c(n5)NCCC6)C4)C3)c2)n1 (stereo not drawn) [Example 211, 3-(3-(3,5-dimethyl-1H-pyrazol-1-yl)phenyl)-3-(6-((5,6,7,8-tetrahydro-1,8-naphthyridin-2-yl)methyl)-2-azaspiro[3.3]heptan-2-yl)propanoic acid]	3.6
O=C(O)C[C@H](NC(=O)C1CC2(C1)CN(C(=O)CCc1ccc3c(n1)NCCC3)C2)c1cc(Cl)cc(Cl)c1 [Example 1, (S)-3-(3,5-Dichlorophenyl)-3-(2-(3-(5,6,7,8-tetrahydro-1,8-naphthyridin-2-yl)propanoyl)-2-azaspiro[3.3]heptane-6-carboxamido)propanoic acid, TFA]	420
O=C(N[C@@H](CNC(=O)[C@H]1C[C@@H](Cc2ccc3c(n2)NCCC3)C1)C(=O)O)OCc1cccc(F)c1 (relative stereo) [Example 197]	197
O=C(O)C[C@@H](c1cncnc1)N1CC(CCCCc2ccc3c(n2)NCCC3)C1 [Example 157]	3
COc1ccc([C@H](CC(=O)O)NC(=O)C2CN(CCc3ccc4c(n3)NCCC4)C2)cn1 [Example 37]	1
COc1ccc(C(CC(=O)O)C2CC3(CC(CCc4ccc5c(n4)NCCC5)C3)C2)cn1 (stereo not drawn) [Example 141]	2.9
COc1ccc(C(CC(=O)O)N2CC3(CC(CCc4ccc5c(n4)NCCC5)C3)C2)cc1F (stereo not drawn) [Example 204, 3-(3-fluoro-4-methoxyphenyl)-3-(6-(2-(5,6,7,8-tetrahydro-1,8-naphthyridin-2-yl)ethyl)-2-azaspiro[3.3]heptan-2-yl)propanoic acid]	2.2
O=C(N[C@@H](CC(=O)N1CC(CCc2ccc3c(n2)NCCC3)C1)C(=O)O)OCc1cccc(F)c1 [Example 176]	294
COc1ccc([C@H](CC(=O)O)C2(F)CN(C(=O)CCCc3ccc4c(n3)NCCC4)C2)cc1F [Example 94]	10
Cc1ncc([C@H](CC(=O)O)NC(=O)N2CC(CCc3ccc4c(n3)NCCC4)C2)cn1 [Example 120]	5.9
COc1ccc(C(CC(=O)O)CC(=O)N2CC(CCc3ccc4c(n3)NCCC4)C2)cc1F (stereo not drawn) [Example 67]	7.1
COc1ccc([C@H](CC(=O)O)NC2CC3(C2)CN(CCc2ccc4c(n2)NCCC4)C3)cn1 [Example 75]	17
COc1ccc([C@H](CC(=O)O)N2CC(CCCc3ccc4c(n3)NCCC4)C2=O)cn1 (single isomer, unassigned) [Example 182]	5.7
O=C(O)C[C@@H](c1ccc(F)c(F)c1)N1CC(CCCCc2ccc3c(n2)NCCC3)C1=O (stereo partly drawn) [Example 113]	12

Continued by falling IC50, values first:

IC50 [nM]	Compound
160	COc1ccc([C@@H](CC(=O)O)N2CC(OCCCc3ccc4c(n3)NCCC4)C2)cc1F [Example 137, (R)-3-(3-fluoro-4-methoxyphenyl)-3-(3-(3-(5,6,7,8-tetrahydro-1,8-naphthyridin-2-yl)propoxy)azetidin-1-yl)propanoic acid]
102	COc1ccc([C@H](CC(=O)O)N2CC(C)(CCCCc3ccc4c(n3)NCCC4)C2=O)cn1 (single isomer, unassigned) [Example 178]
26	COc1ccc(C(CC(=O)O)C2CC(CCCCc3ccc4c(n3)NCCC4)C2)cn1 (single isomer, unassigned; diastereomer a) [Example 139, 3-(6-Methoxypyridin-3-yl)-3-(3-(4-(5,6,7,8-tetrahydro-1,8-naphthyridin-2-yl)butyl)cyclobutyl)propanoic acid (Diastereomer A)]
25	Cc1nc2c(cc1CCN1CC3(CC(C(=O)N[C@@H](CC(=O)O)c4cc(Cl)cc(Cl)c4)C3)C1)CCCN2 [Example 4, (S)-3-(3,5-Dichlorophenyl)-3-(2-(2-(2-methyl-5,6,7,8-tetrahydro-1,8-naphthyridin-3-yl)ethyl)-2-azaspiro[3.3]heptane-6-carboxamido)propanoic acid]
25	Cc1ncc([C@@H](CC(=O)O)N2CC(OCCCc3ccc4c(n3)NCCC4)C2)cn1 [example 132, (R)-3-(2-methylpyrimidin-5-yl)-3-(3-(3-(5,6,7,8-tetrahydro-1,8-naphthyridin-2-yl)propoxy)azetidin-1-yl)propanoic acid]
7.5	Cc1ncc([C@H](CC(=O)O)N2CC(OCCCc3ccc4c(n3)NCCC4)C2)cn1 [example 131, (S)-3-(2-methylpyrimidin-5-yl)-3-(3-(3-(5,6,7,8-tetrahydro-1,8-naphthyridin-2-yl)propoxy)azetidin-1-yl)propanoic acid]
6	O=C(O)C[C@@H](c1ccc2c(c1)CCO2)N1CC(CCCCc2ccc3c(n2)NCCC3)C1=O (stereo partly drawn) [Example 111]
5.9	O=C(O)CC(c1cnc2ccccc2c1)C1(F)CN(CCCCc2ccc3c(n2)NCCC3)C1 (stereo not drawn) [Example 118]
5.8	COc1ncc([C@H](CC(=O)O)N2CC(CCCCc3ccc4c(n3)NCCC4)C2=O)cn1 (stereo partly drawn) [Example 70]
4.9	COc1ccc(C(CC(=O)O)N2CC(OCCCc3ccc4c(n3)NCCC4)C2)cc1F (stereo not drawn) [Example 135, 3-(3-fluoro-4-methoxyphenyl)-3-(3-(3-(5,6,7,8-tetrahydro-1,8-naphthyridin-2-yl)propoxy)azetidin-1-yl)propanoic acid, 2 TFA]
3.3	Cc1ncc([C@H](CC(=O)O)N2CC(F)(CCCCc3ccc4c(n3)NCCC4)C2)cn1 [Example 167]
2.9	COc1ncc([C@H](CC(=O)O)N2CC(CCCCc3ccc4c(n3)NCCC4)C2)cn1 [Example 156]
2.8	Cc1cc(C)n(-c2cccc(C(CC(=O)O)N3CC4(CC(CCc5ccc6c(n5)NCCC6)C4)C3)c2)n1 (stereo not drawn) [Example 207]
2.7	O=C(O)CC(c1cnc2ccccc2c1)C1CC2(C1)CN(CCCc1ccc3c(n1)NCCC3)C2 (stereo not drawn) [Example 117]
2.5	COc1ccc([C@H](CC(=O)O)N2CC(F)(CCCCc3ccc4c(n3)NCCC4)C2)cc1F [Example 165]
2.4	COc1ccc(C(CC(=O)O)C2CC3(C2)CN(CCc2ccc4c(n2)NCCC4)C3)cc1F (stereo not drawn) [Example 116]
0.8	O=C(O)C[C@H](NC(=O)C1CN(CCc2ccc3c(n2)NCCC3)C1)c1cc(Cl)cc(Cl)c1 [Example 38]
0.4	O=C(N[C@@H](CNC(=O)C1CN(CCc2ccc3c(n2)NCCC3)C1)C(=O)O)OCc1ccccc1 [Example 43]
